These results are taken from the SangsterLogP compilation.

As a reminder, the logP is the decadic logarithm of the partition coefficient of the neutral form, usually between octanol and water. Lower therefore signals a more hydrophilic compound. Broadly, the logD is lipophilicity at a set pH, counting ionised and neutral species.

SMILES strings stand for the structures.

The nature of the first series: method code SF-AS, from PMID: 754638.
Details: not given
Molecule `CCCS(=O)(=O)c1cc(OC)c(OC)c(OC)c1` registered a logP of 1.56.
The same measure, in the same setting: then `C=CCS(=O)(=O)c1cc(OC)c(OC)c(OC)c1`, with 1.34; and `CCS(=O)(=O)c1cc(OC)c(OC)c(OC)c1`, with 1.05; and `COc1cc(S(=O)(=O)CCO)cc(OC)c1OC`, with 0.18.
The same measure, in the same setting: under `COc1cc(S(=O)(=O)CC(O)c2ccccc2)cc(OC)c1OC` (centres undefined) stands 1.65; under `COc1cc(S(=O)(=O)CCN2CCOCC2)cc(OC)c1OC`, 1.29; under `COc1cc(S(=O)(=O)CCC(C)C)cc(OC)c1OC`, 2.12.

Staying with this series, now noted: pH 7.3.
`COc1cc(S(=O)(=O)CCN2CCCCC2)cc(OC)c1OC` returned a logD of 1.6.
Same read-out and setting: then `CCCCN(C)CCS(=O)(=O)c1cc(OC)c(OC)c(OC)c1`, with 2.05.
